Test results reported in ChEMBL document CHEMBL1156813 (J Med Chem, 2010).
In brackets after ≈: the same amount, converted by molar mass.

What was measured:
[1] = target: Cannabinoid receptor 1 (Homo sapiens, UniProt P21554); assay: biochemical; format: cell-based, CHO
[2] = target: Cannabinoid receptor 2 (Homo sapiens, UniProt P34972); assay: biochemical
[3] = physchem; conditions: phosphate buffered saline, pH 7.4
[4] = physchem; conditions: phosphate buffered saline, pH 2
[5] = target: Acetylcholinesterase (Homo sapiens, UniProt P22303); assay: biochemical
Chain of Acetylcholinesterase (P22303 whole entry): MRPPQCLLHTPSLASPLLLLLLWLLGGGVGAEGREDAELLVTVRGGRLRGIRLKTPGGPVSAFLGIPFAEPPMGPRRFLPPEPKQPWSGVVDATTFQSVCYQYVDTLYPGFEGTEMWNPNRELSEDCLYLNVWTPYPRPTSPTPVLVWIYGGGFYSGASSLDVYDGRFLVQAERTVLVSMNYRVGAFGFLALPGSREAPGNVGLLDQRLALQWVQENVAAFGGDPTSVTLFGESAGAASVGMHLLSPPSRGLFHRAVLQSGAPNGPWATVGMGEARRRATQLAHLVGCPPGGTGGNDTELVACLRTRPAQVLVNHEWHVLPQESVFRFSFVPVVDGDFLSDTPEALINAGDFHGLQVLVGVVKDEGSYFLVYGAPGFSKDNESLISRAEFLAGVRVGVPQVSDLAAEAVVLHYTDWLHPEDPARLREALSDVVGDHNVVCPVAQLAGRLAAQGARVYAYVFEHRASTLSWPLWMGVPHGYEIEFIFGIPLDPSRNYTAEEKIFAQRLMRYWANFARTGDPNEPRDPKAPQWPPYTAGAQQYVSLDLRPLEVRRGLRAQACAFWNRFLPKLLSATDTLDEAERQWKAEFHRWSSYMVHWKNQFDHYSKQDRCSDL
Description: Inhibition of human recombinant AChE expressed in HEK293 cells by photometry

Chain of Cannabinoid receptor 1 (P21554 whole entry): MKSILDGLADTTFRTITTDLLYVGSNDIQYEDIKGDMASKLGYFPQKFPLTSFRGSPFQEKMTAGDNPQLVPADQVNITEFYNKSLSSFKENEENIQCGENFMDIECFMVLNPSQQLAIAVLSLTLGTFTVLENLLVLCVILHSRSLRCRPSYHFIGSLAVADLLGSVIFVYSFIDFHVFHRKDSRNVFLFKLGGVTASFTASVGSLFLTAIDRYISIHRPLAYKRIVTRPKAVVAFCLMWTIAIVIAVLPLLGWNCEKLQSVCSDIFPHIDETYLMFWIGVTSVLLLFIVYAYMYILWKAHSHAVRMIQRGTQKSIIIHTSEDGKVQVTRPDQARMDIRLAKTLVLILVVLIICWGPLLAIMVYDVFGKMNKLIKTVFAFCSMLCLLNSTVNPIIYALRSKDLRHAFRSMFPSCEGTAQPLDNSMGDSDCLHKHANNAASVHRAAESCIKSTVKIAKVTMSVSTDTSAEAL
Chain of Cannabinoid receptor 2 (P34972 whole entry): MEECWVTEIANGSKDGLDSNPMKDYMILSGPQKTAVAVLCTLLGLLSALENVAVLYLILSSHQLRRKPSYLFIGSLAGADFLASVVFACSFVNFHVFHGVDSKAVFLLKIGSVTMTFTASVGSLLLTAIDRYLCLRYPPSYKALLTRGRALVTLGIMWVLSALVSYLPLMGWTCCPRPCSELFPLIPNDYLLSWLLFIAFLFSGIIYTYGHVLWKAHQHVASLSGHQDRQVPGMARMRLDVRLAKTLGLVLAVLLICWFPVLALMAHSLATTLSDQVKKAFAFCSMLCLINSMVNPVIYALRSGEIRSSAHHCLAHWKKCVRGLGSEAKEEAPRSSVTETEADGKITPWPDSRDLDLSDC

## O=S(=O)(/N=C(\NCCCCNc1c2c(nc3ccccc13)CCCC2)N1CC(c2ccccc2)C(c2ccc(Cl)cc2)=N1)c1ccc(Cl)cc1 (stereo unspecified)
[1]
  Ki: 42 nM
[2]
  Ki: > 1000 nM

## CN(C)CCCN/C(=N\S(=O)(=O)c1ccc(Cl)cc1)N1CC(c2ccccc2)C(c2ccc(Cl)cc2)=N1.Cl (stereo unspecified)
[1]
  Ki: 3.1 nM
[3]
  solubility kinetic: 38 µM
[4]
  solubility kinetic: > 100 µM
[2]
  Ki: > 1000 nM

## CN(C)CCN1CCN(/C(=N\S(=O)(=O)c2ccc(Cl)cc2)N2CC(c3ccccc3)C(c3ccc(Cl)cc3)=N2)CC1 (stereo unspecified)
[1]
  Ki: 9.6 nM
[3]
  solubility kinetic: 4 µM (≈ 2.45 µg/mL)
[4]
  solubility kinetic: 65 µM (≈ 39.9 µg/mL)
[2]
  Ki: > 1000 nM

## O=S1(=O)CCN(/C(=N\S(=O)(=O)c2ccc(Cl)cc2)N2CC(c3ccccc3)C(c3ccc(Cl)cc3)=N2)CC1 (stereo unspecified)
[1]
  Ki: 31 nM
[3]
  solubility kinetic: < 3 µM
[4]
  solubility kinetic: < 7 µM
[2]
  Ki: 571 nM

## CNC(=NS(=O)(=O)c1ccc(Cl)cc1)N1CC(c2ccccc2)C(c2ccc(Cl)cc2)=N1 (stereo not drawn) [RAC-IBIPINABANT]
[3]
  solubility kinetic: 2 µM (≈ 0.975 µg/mL)
[4]
  solubility kinetic: 4 µM (≈ 1.95 µg/mL)

## O=S(=O)(N=C(NCCCCN1CCCC1)N1CC(c2ccccc2)C(c2ccc(Cl)cc2)=N1)c1ccc(Cl)cc1 (stereo unspecified)
[1]
  Ki: 27 nM
[3]
  solubility kinetic: 11 µM (≈ 6.58 µg/mL)
[4]
  solubility kinetic: 38 µM (≈ 22.7 µg/mL)
[2]
  Ki: > 1000 nM

## CC(C)(O)CN=C(NS(=O)(=O)c1ccc(Cl)cc1)N1CC(c2ccccc2)C(c2ccc(Cl)cc2)=N1 (stereo unspecified)
[1]
  Ki: 43 nM
[3]
  solubility kinetic: 4 µM (≈ 2.18 µg/mL)
[4]
  solubility kinetic: 4 µM (≈ 2.18 µg/mL)
[2]
  Ki: > 1000 nM

## CN1CCC(N/C(=N\S(=O)(=O)c2ccc(Cl)cc2)N2CC(c3ccccc3)C(c3ccc(Cl)cc3)=N2)CC1 (stereo unspecified)
[1]
  Ki: 19 nM
[3]
  solubility kinetic: 11 µM (≈ 6.28 µg/mL)
[4]
  solubility kinetic: 65 µM (≈ 37.1 µg/mL)
[2]
  Ki: > 1000 nM

## CCc1c(C(=O)NN2CCCCC2)nc(-c2ccccc2Cl)n1-c1ccc(Cl)cc1
[1]
  Ki: 14 nM
[5]
  IC50: > 31600 nM
[2]
  Ki: > 1000 nM
